Source: patent US20220370447A1, “METHOD OF TREATING HBV INFECTION USING A CORE PROTEIN ALLOSTERIC MODULATOR” (Hoffmann-La Roche Inc., priority 2019, published 2022)

Columns and labels:
Type in all cases: in vivo, human
[1] = Safety and tolerability in chronic hepatitis B patients
Description: (§1) Three clinical studies (Part 1 and 2 of YP39364 (NCT02952924), YP39406 (NCT03570658), and YP40218 (NCT03717064)) have been completed to characterize the safety, tolerability, pharmacokinetics (PK) and pharmacodynamics (PD) of Compound (I) in both healthy volunteers and CHB patients. […] Thus, there is an unmet medical need for a novel method of treatment with Compound (I) that could achieve a higher rate of functional cure with a finite treatment duration and excellent tolerability.
In this invention, methods of Compound (I) monotherapy and Compound (I) in combination with other anti-HBV agents for 12-144 weeks were developed. […] Comparing with current NUC treatment, the current finite treatment methods of this invention minimize the risk of drug resistance and decrease adverse effects of NUC treatment (e.g. the risk of renal injury, bone density loss and creatine kinase elevation, etc).

HBV [2] = experiment: Treatment methods of the invention, Compound (I) monotherapy or combination for 12-144 weeks in patients infected with HBV
Description: Study population: patients infected with HBV (Terrault NA, Lok ASF, McMahon BJ, et al. Update on prevention, diagnosis, and treatment of chronic hepatitis B: AASLD 2018 hepatitis B guidance. Hepatology. 2018; 67:1560-1599.European Association for the Study of the Liver. EASL 2017 Clinical Practice Guidelines on the management of hepatitis B virus infection. J Hepatol. 2017; 67:370-398.).
General Methods: To explore the effects of Compound (I) on HBsAg loss or decline, Compound (I) is administered following the dose regimen listed in Table 1. The primary measure is the quantitative HBsAg decline or HBsAg loss (<0.05 IU/mL, measured by Elecsys® HBsAg II (Roche)®) at 24 weeks post treatment.

HBV [3] = experiment: Completed clinical studies (YP39364 Part 1 and 2, YP39406, YP40218), four-week treatment, PD markers; settings: four-week treatment with Compound (I)
Description: as §1

[4] = immune tolerant patients (HBV DNA levels elevated, ALT levels normal)

**Q.** Which Safety and tolerability [1] does the source give for CCOC(=O)C1=C(CN2CCN3C(=O)N(CC(C)(C)C(=O)O)C[C@@H]3C2)NC(c2nccs2)=N[C@H]1c1cccc(F)c1C [Compound (I)] here?
**A.** safe and well tolerated

**Q.** What about the “hepatitis B surface antigen (HBsAg) decline or loss” value (HBV [2]; Compound (I) in combination with other anti-HBV agents for 12-144 weeks) of the same compound?
**A.** significant hepatitis B surface antigen (HBsAg) decline or loss

**Q.** What about the “HBV DNA decline” value (HBV [2]; [4]) of the same compound?
**A.** robust HBV DNA and HBV RNA decline

**Q.** What about the “HBV RNA decline” value (HBV [2]; [4]) of the same compound?
**A.** robust HBV DNA and HBV RNA decline

**Q.** And the “HBV DNA (short-term PD marker)” value (HBV [3])?
**A.** robust decline

**Q.** And the “HBV RNA (short-term PD marker)” value (HBV [3])?
**A.** robust decline

**Q.** And the HBsAg decline (HBV [3])?
**A.** significant decline of HBsAg has not been observed
